# Data: patent US20050277586A1, “Peptide chemically modified with polyethylene glycol” (priority 2002, published 2005)
# No end group written: not given here.
# How the values were obtained:
# [1] = Measurement of CD spectrum with and without SDS; type: physicochemical; details: 10 mM phosphate buffer pH 7, 50 mM NaCl, 35° C.; for α-helix structure in CD spectroscopy in the presence of SDS: 5 mM SDS
# Protocol: The peptide dissolved in 10 mM phosphate buffer (pH=7) containing 50 mM NaCl was evaluated for its CD spectrum in the presence and in the absence of 5 mM SDS by using a circular dichroism spectrophotometer (J-500A, manufactured by JASCO). The cell length was 1 mm. The measurement was conducted at 35° C. for 6 times in total.
# [2] = system: Vero cell, T24 cell, A549 cell; assay: Nucleic acid-introducing ability, luciferase-expressing plasmid (procedure of Example 9); type: cell-based
# Excerpt: A cell line established from monkey kidney (Vero cell) and a human bladder cancer cell (T24 cell) purchased from American Type Culture Collection (ATCC) and human lung cancer cell (A549 cell) purchased from Dainippon Pharmaceutical were inoculated on a 24 well culture plate (manufactured by NALGEN NUNC) at 1×10^5 cells/well. Vero cell and A549 cell were cultivated in DMEM (manufactured by Life Technologies Oriental) supplemented with 10% fetal bovine serum (hereinafter referred to as FBS, manufactured by NICHIREI), and T24 cell was cultivated in McCoy's 5a (manufactured by Life Technologies Oriental) supplemented with 10% FBS in 5% CO2 atmosphere at 37° C. for 24 hours. After removing the medium, opti-MEM (manufactured by Life Technologies Oriental) prepared to have the concentration of the luciferase-expressing plasmid prepared in Example 7 of 1 μg/mL and the concentration of the peptide prepared in Example 1 of 1.25, 2.5, or 5 μM was added, and the cells were cultivated for 5 hours. Next, in the case of Vero cell and A549 cell, the culture medium was replaced with DMEM supplemented with 10% FBS, and in the case of T24 cell, the medium was replaced with McCoy's 5a supplemented with 10% FBS, and cultivation was continued in 5% CO2 atmosphere and at 37° C. for another 24 hours. The luciferase activity expressed in the cell was then measured by the method instructed in luciferase assay system (manufactured by Promega). To be more specific, the cells were washed with phosphate-buffered saline (hereinafter referred to as PBS, manufactured by SIGMA), and the cells were lyzed with Passive Lysis Buffer attached to the kit.
# 20 μL of this cell lysate and 100 μL of the Luciferase Assay Reagent II attached to the kit was added to a fluorescence-measuring plate (Microlite™ 1 plate, manufactured by Dynatech), and after mixing, fluorescence was measured for 1 second by using a multilabel counter (ARVO™ SY1420 MULTILABEL COUNTER, manufactured by Wallac Beltold.
# Concentration of the protein in the cell lysate was measured by mixing 8 μL of the cell lysate and 200 μL of the protein assay solution (manufactured by Biorad) with 792 μL of ultrapure water in a disposable cuvette (UV fluorescent cuvette A204X, manufactured by Funakoshi), allowing the mixture to stand for 5 minutes at room temperature, and measuring the absorption at 595 nm with a spectrophotometer (DU640, manufactured by Beckman). Bovine serum albumin (BSA) was used for the standard protein. By using the thus obtained results, count per 1 second per 1 mg of protein of the cell lysate was calculated to thereby use the count as the luciferase activity, and the highest count in the three conditions of different peptide concentration was designated the gene-introducing ability of the peptide.
# [3] = Affinity for phosphatidyl serine by surface plasmon resonance (Biacore 2000); type: binding; details: in the presence of 0.1 mg/mL BSA
# Protocol: The specific affinity of the peptide for phosphatidyl serine was evaluated by means of surface plasmon resonance (SPR) using Biacore 2000 (manufactured by Biacore). To be more specific, phosphatidyl choline was immobilized on flow cell 1, and 50% of phosphatidyl serine and 50% of phosphatidyl choline were immobilized on flow cell 2 of HPA chip (manufactured by Biacore), and ability of the peptide to bind to the phospholipid was evaluated in the presence of 0.1 mg/mL BSA to thereby evaluate the affinity.
# [4] = Toxicity of the peptide, tail vein administration; type: in vivo; details: female BALB/c mouse, 5 mg/kg
# Protocol: The peptide used in the present invention was administered to a mouse from its tail vein to thereby evaluate its toxicity. The mouse used was a female BALB/c mouse of 5 week old, and the peptide was used at a dose of 5 mg/kg.
# Vero cell = assay: Storage stability of the complex with nucleic acid (gene-introducing activity after 4° C., 1 week); type: cell-based, monkey; details: complex with luciferase plasmid stored at 4° C. for 1 week
# Protocol: Luciferase-expressing plasmid was introduced in Vero cell in accordance with the procedure described in Example 9 by using the opti-MEM prepared to have a concentration of the luciferase-expressing plasmid prepared in Example 7 of 2 μg/mL and a concentration of the peptide of SEQ ID NO: 4 prepared in Example 1 of 5 μM to thereby measure the luciferase activity. The opti-MEM containing plasmid and peptide used were the one which had been prepared immediately before the gene introduction, and the one which had been prepared 1 week (7 days) in advance and stored at 4° C.
# For the purpose of reference, gene-introducing activity of Lipofectin and LipofectAMINE 2000 (manufactured by Life Technologies Oriental), which are commercially available plasmid-introducing agents, were also evaluated by mixing these reagent with luciferase-expressing plasmid in accordance with the attached protocol, and evaluating their gene-introducing activity after storing at 4° C. for 1 week.
# [5] = system: Lewis lung carcinoma cell; assay: In vivo HSV-tk gene introduction plus GCV, survival of mice with Lewis lung carcinoma in abdominal cavity; design: species or system mouse; details: GCV only, 30 mg/kg/day
# Protocol: To be more specific, 1×10^5 Lewis lung carcinoma cells were transplanted in the abdominal cavity of a C57BL/6 mouse (purchased from Charles River JAPAN), and a mixture of 10 μg of the HSV-tk-expressing plasmid prepared in Example 7 and 40 nmol of the peptide of SEQ ID NO: 16 prepared in Example 1 was administered in the abdominal cavity after the cell transplantation. The mouse was also administered with GCV at a dose of 30 mg/kg/day from 1st to 8th day after the transplantation.
molecule,measurement,setting,value
SEQ ID NO: 25: same amino acid composition as SEQ ID NO: 1 but with an utterly random amino acid sequence (TIRYRPSHQIRLRAVLHLWIRYRPSHQIRLRAVLHWS) [reference compound],α-helix structure in CD spectroscopy in the presence of SDS,[1],no α-helix structure is found even in the presence of SDS
same,Ability of introducing the nucleic acid into a cell,[2]; procedure of Example 9,neither the nucleic acid-introducing ability
same,"Binding to flow cell 2 (50% phosphatidyl serine, 50% phosphatidyl choline) and flow cell 1 (phosphatidyl choline)",[3],showed no binding
LARLLARLLARLLRALLRALLRAL [SEQ ID NO: 27],Toxicity after tail vein administration,[4],died immediately after the administration
SEQ ID NO: 4: SEQ ID NO: 1 with one or two locations in the 18 amino acid sequence substituted (TRYLRIHPRSWLHQIALRLRYLRIHPRSWLHQIALRS),α-helix structure in CD spectroscopy in the presence of SDS,[1],are in α-helix structure in the presence of SDS
same,α-helix structure in CD spectroscopy in the absence of SDS,[1]; no SDS,do not take α-helix structure in an aqueous solution solely containing an inorganic salt
same,Nucleic acid-introducing ability,"[2]; luciferase plasmid 1 μg/mL, highest count of peptide 1.25, 2.5 or 5 μM, cell line not stated","4+ (10,000,000 to less than 100,000,000)"
same,Gene-introducing activity after storage relative to freshly prepared complex,Vero cell,substantially equivalent
"Nc1nc(O)c2ncn(COC(CO)CO)c2n1 [GCV, ganciclovir]",Average survival period,[5],14 days
